Reference: patent US12606520B2, “Calpain-2 inhibitor compounds and methods of treatment” (WESTERN UNIVERSITY OF HEALTH SCIENCES, priority 2020, dated 2026)

Biological target: T1, calpain-1 (Mus musculus, UniProt O35350)
T1 sequence (O35350 1-713): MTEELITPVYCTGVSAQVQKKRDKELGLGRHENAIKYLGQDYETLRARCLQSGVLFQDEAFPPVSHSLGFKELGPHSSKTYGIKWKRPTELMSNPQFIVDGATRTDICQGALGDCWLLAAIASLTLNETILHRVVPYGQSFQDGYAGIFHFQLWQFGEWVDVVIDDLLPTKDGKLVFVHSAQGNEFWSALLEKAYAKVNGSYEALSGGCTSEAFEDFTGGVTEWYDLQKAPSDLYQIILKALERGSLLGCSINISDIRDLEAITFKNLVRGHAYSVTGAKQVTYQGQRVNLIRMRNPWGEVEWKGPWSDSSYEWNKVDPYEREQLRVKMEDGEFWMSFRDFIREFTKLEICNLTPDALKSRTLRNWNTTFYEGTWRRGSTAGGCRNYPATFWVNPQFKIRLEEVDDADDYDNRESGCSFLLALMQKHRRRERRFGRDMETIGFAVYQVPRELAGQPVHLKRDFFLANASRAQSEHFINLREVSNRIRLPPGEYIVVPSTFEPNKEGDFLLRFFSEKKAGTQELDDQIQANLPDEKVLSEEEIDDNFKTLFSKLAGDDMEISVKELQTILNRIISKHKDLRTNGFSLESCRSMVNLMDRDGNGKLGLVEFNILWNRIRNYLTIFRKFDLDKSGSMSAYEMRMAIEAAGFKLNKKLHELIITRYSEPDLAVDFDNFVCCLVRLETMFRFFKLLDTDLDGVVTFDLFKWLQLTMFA
T1 sequence (O88456 1-268 partner): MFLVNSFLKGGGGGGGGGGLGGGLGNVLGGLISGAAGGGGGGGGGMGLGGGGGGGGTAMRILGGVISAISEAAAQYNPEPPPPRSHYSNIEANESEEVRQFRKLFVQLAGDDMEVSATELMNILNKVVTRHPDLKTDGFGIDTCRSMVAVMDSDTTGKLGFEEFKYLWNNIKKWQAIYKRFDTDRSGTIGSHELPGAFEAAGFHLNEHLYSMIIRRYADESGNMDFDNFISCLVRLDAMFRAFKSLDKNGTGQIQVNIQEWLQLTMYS
Test: Calpain-1 activity in brain after TBI in mice
Format: in vivo
Design: from tissue; host or cells: mouse brain after TBI
Conditions: 1 mg/kg i.p., 24 h after TBI
Procedure: We also performed the same model of TBI in male and female mice and in male and female rats. In all cases, NA184 was injected i.p. at 1 mg/kg. For the rat experiments, NA184 was injected twice at 1 h and 8 h after TBI. Animals were sacrificed 24 h after TBI and calpain activity was assayed in brain and cell death was analyzed in cortex. […] In addition, there was a highly significant correlation between calpain-2 activity and cell death in rats (FIG. 23). R^2 was 0.61 and p<0.005.

Structure (SMILES): CCC(NC(=O)[C@H](CC(C)C)NC(=O)NCc1ccccc1)C(=O)C(=O)NCc1cccc(Cl)c1OC (stereo partly drawn) [NA184, (2S)-2-(3-benzylureido)-N-(1-((3-chloro-2-methoxybenzyl)amino)-1,2-dioxopentan-3-yl)-4-methylpentanamide]
- Calpain-1 inhibition in brain, male and female mice: not calpain-1
